Measured values as given in the supplement of paper PMC8671470.

Tests used:
Settings in all cases: 72 h
SHI-1 [1] = assay: cell viability (% survival relative to DMSO control, bortezomib = 0%); higher = less cytotoxic
Procedure, shortened: (§1)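 Reported values are percent survival from duplicate wells, averaged. Fifteen myeloid leukaemia cell lines were treated in 384-well plates with compounds at 1, 10, 100, 1000 or 10000 nM for 72 h at 37 °C in 5% CO2. Signals from CellTiter-Glo luminescence were scaled with vehicle as 100% and a 10 µM positive control as 0%.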

MV4-11 [2] = assay: as above
Procedure, shortened: as §1

HL-60 [3] = assay: as above
Procedure, shortened: as §1

Mono-Mac-6 [4] = assay: as above
Procedure, shortened: as §1

LAMA-84 [5] = assay: as above
Procedure, shortened: as §1

KU-812 [6] = assay: as above
Procedure, shortened: as §1

ML-2 [7] = assay: as above
Procedure, shortened: as §1

K-562 [8] = assay: as above
Procedure, shortened: as §1

THP-1 [9] = assay: as above
Procedure, shortened: as §1

HEL [10] = assay: as above
Procedure, shortened: as §1

KCL-22 [11] = assay: as above
Procedure, shortened: as §1

BV-173 [12] = assay: as above
Procedure, shortened: as §1

MOLM-13 [13] = assay: as above
Procedure, shortened: as §1

KG-1 [14] = assay: as above
Procedure, shortened: as §1

NOMO-1 [15] = assay: as above
Procedure, shortened: as §1

SHI-1 [16] = tested on: SHI-1
Procedure, shortened: (§2)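 For the IC50, dose–response curves were fitted with a log-logistic model. The data came from fifteen myeloid leukaemia cell lines grown in RPMI 1640 at densities in the linear growth range and incubated in 384-well plates for 72 h at 37 °C under 5% CO2. Doses were five tenfold steps from 1 to 10,000 nM in duplicate, and luminescent ATP viability was normalised to vehicle and to a positive control at 10 µM before four-parameter fitting.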

MV4-11 [17] = tested on: MV4-11
Procedure, shortened: as §2

HL-60 [18] = tested on: HL-60
Procedure, shortened: as §2

Mono-Mac-6 [19] = tested on: Mono-Mac-6
Procedure, shortened: as §2

LAMA-84 [20] = tested on: LAMA-84
Procedure, shortened: as §2

KU-812 [21] = tested on: KU-812
Procedure, shortened: as §2

ML-2 [22] = tested on: ML-2
Procedure, shortened: as §2

K-562 [23] = tested on: K-562
Procedure, shortened: as §2

THP-1 [24] = tested on: THP-1
Procedure, shortened: as §2

HEL [25] = tested on: HEL
Procedure, shortened: as §2

KCL-22 [26] = tested on: KCL-22
Procedure, shortened: as §2

BV-173 [27] = tested on: BV-173
Procedure, shortened: as §2

MOLM-13 [28] = tested on: MOLM-13
Procedure, shortened: as §2

KG-1 [29] = tested on: KG-1
Procedure, shortened: as §2

NOMO-1 [30] = tested on: NOMO-1
Procedure, shortened: as §2

OCC(CO)N[C@H]1C[C@](O)(CO)[C@@H](O)[C@H](O)[C@H]1O [Voglibose]
cell viability [%]
Settings	1 nM	10 nM	100 nM	1000 nM	10000 nM
BV-173 [12]	113	112	99.3	93.8	102
HEL [10]	124	107	97.3	99.1	118
HL-60 [3]	119	99.5	116	88.2	94.6
K-562 [8]	97.9	107	113	89.4	99.3
KCL-22 [11]	99.4	97.1	98	98.1	111
KG-1 [14]	95.6	102	107	95.6	106
KU-812 [6]	97.5	109	106	88.5	91.3
LAMA-84 [5]	102	105	99.6	94.6	103
ML-2 [7]	109	110	107	95.2	111
MOLM-13 [13]	117	94.4	127	70	70.1
MV4-11 [2]	106	107	113	84.7	52.7
Mono-Mac-6 [4]	102	96	109	86.7	91.8
NOMO-1 [15]	103	103	107	99.1	102
SHI-1 [1]	106	108	100	96	94.4
THP-1 [9]	108	96	93	101	99.1

Settings	IC50 (cell viability) [µM]
BV-173 [27]	> 10
HEL [25]	> 10
HL-60 [18]	> 10
K-562 [23]	> 10
KCL-22 [26]	> 10
KG-1 [29]	> 10
KU-812 [21]	> 10
LAMA-84 [20]	> 10
ML-2 [22]	> 10
MOLM-13 [28]	> 10
MV4-11 [17]	6.47
Mono-Mac-6 [19]	> 10
NOMO-1 [30]	> 10
SHI-1 [16]	> 10
THP-1 [24]	> 10

NC(CCC(=O)NC(CSCc1ccc(Br)cc1)C(=O)NCC(=O)OC1CCCC1)C(=O)OC1CCCC1 (stereo not given) [S-para-Bromobenzylglutathione cyclopentyl diester]
cell viability [%]
Settings	1 nM	10 nM	100 nM	1000 nM	10000 nM
BV-173 [12]	96.5	88.3	97	77.1	28
HEL [10]	114	88.2	113	102	77
HL-60 [3]	97.3	92.7	105	90	100
K-562 [8]	105	106	104	112	93.2
KCL-22 [11]	103	97.9	104	111	98.3
KG-1 [14]	145	102	49.9	43.4	105
KU-812 [6]	90.1	97.2	95.9	101	93.9
LAMA-84 [5]	101	110	93.3	98.2	98.9
ML-2 [7]	102	87.1	105	105	8.21
MOLM-13 [13]	113	111	92.6	90	89.2
MV4-11 [2]	109	89.3	106	98.7	93.4
Mono-Mac-6 [4]	108	96.5	88.8	90.6	63.3
NOMO-1 [15]	98	98.1	97.4	97.8	95.8
SHI-1 [1]	98.2	109	98.5	91.3	99.9
THP-1 [9]	103	97.5	96.8	101	92

Settings	IC50 (cell viability) [µM]
BV-173 [27]	2.32
HEL [25]	> 10
HL-60 [18]	> 10
K-562 [23]	> 10
KCL-22 [26]	> 10
KG-1 [29]	> 10
KU-812 [21]	> 10
LAMA-84 [20]	> 10
ML-2 [22]	3.95
MOLM-13 [28]	> 10
MV4-11 [17]	> 10
Mono-Mac-6 [19]	> 10
NOMO-1 [30]	> 10
SHI-1 [16]	> 10
THP-1 [24]	> 10

OC[C@H]1N[C@@H](c2c[nH]c3c(O)ncnc23)[C@H](O)[C@@H]1O [Forodesine]
cell viability [%]
Settings	1 nM	10 nM	100 nM	1000 nM	10000 nM
BV-173 [12]	95.1	83.9	103	91.1	89.1
HEL [10]	103	95.9	102	92.6	88.6
HL-60 [3]	92.1	98	95.8	102	90.2
K-562 [8]	94.9	94.4	88.3	97.5	99.3
KCL-22 [11]	102	91.8	100	99.2	91.3
KG-1 [14]	107	94.2	95.4	85.1	82.8
KU-812 [6]	89.9	96	96.8	96.4	75.4
LAMA-84 [5]	96.4	90.1	94.7	93	88.7
ML-2 [7]	92.7	85	95.3	92.9	85.7
MOLM-13 [13]	81.3	89.2	93.1	103	84.1
MV4-11 [2]	97.1	94.5	91.7	92.3	90.3
Mono-Mac-6 [4]	109	87.5	107	108	88.5
NOMO-1 [15]	97.9	92.3	97.3	96.9	87.4
SHI-1 [1]	101	95.5	94.3	108	98.9
THP-1 [9]	100	93.9	90.7	83.1	74.3

Settings	IC50 (cell viability) [µM]
BV-173 [27]	> 10
HEL [25]	> 10
HL-60 [18]	> 10
K-562 [23]	> 10
KCL-22 [26]	> 10
KG-1 [29]	> 10
KU-812 [21]	> 10
LAMA-84 [20]	> 10
ML-2 [22]	> 10
MOLM-13 [28]	> 10
MV4-11 [17]	> 10
Mono-Mac-6 [19]	> 10
NOMO-1 [30]	> 10
SHI-1 [16]	> 10
THP-1 [24]	> 10

COc1cc(C2Oc3cc(C4Oc5cc(O)cc(O)c5C(=O)C4O)ccc3OC2CO)ccc1O (stereo not given) [Silibinin]
cell viability [%]
Settings	1 nM	10 nM	100 nM	1000 nM	10000 nM
BV-173 [12]	90.9	93.5	110	95.2	87.2
HEL [10]	101	100	115	89.2	103
HL-60 [3]	91.9	92.9	96.9	105	104
K-562 [8]	95	97.7	102	94.5	76.4
KCL-22 [11]	99.3	95.3	84.2	102	95.1
KG-1 [14]	91.3	104	99.2	94.3	93.8
KU-812 [6]	96.5	93.1	108	94.1	90.7
LAMA-84 [5]	98.1	102	110	95.6	95
ML-2 [7]	93	99.2	87.2	95.8	91.1
MOLM-13 [13]	99.8	103	103	106	103
MV4-11 [2]	100	95.7	97.2	110	98.8
Mono-Mac-6 [4]	96.4	91.2	94.1	99	98.9
NOMO-1 [15]	95.3	96.4	99.8	101	99.7
SHI-1 [1]	102	107	89.3	98.6	105
THP-1 [9]	99.3	95.5	107	98.9	95.9

Settings	IC50 (cell viability) [µM]
BV-173 [27]	> 10
HEL [25]	> 10
HL-60 [18]	> 10
K-562 [23]	> 10
KCL-22 [26]	> 10
KG-1 [29]	> 10
KU-812 [21]	> 10
LAMA-84 [20]	> 10
ML-2 [22]	> 10
MOLM-13 [28]	> 10
MV4-11 [17]	> 10
Mono-Mac-6 [19]	> 10
NOMO-1 [30]	> 10
SHI-1 [16]	> 10
THP-1 [24]	> 10

Oc1ncc(F)c(O)n1 [5-fluorouracil]
cell viability [%]
Settings	1 nM	10 nM	100 nM	1000 nM	10000 nM
BV-173 [12]	99	110	85.6	86.4	16.3
HEL [10]	95.1	104	84.2	73.8	31.8
HL-60 [3]	113	120	138	61.2	27.1
K-562 [8]	101	114	91.5	108	68.9
KCL-22 [11]	98.9	120	98.3	84.3	30.6
KG-1 [14]	101	114	85.8	83.5	46.2
KU-812 [6]	97.6	100	88.4	88	66.6
LAMA-84 [5]	91.1	98.5	99.8	86.9	48.8
ML-2 [7]	93	99.4	102	78.9	29.5
MOLM-13 [13]	128	109	82.2	22.4	2.01
MV4-11 [2]	96	111	85	26.3	1.31
Mono-Mac-6 [4]	95.4	95.5	88.4	47.9	19.3
NOMO-1 [15]	92.2	105	95.1	68.5	61.9
SHI-1 [1]	91.6	110	102	70.9	44.6
THP-1 [9]	101	111	99.3	97.8	63.3

Settings	IC50 (cell viability) [µM]
BV-173 [27]	3.48
HEL [25]	2.3
HL-60 [18]	1.07
K-562 [23]	> 10
KCL-22 [26]	2.68
KG-1 [29]	4.31
KU-812 [21]	> 10
LAMA-84 [20]	6.31
ML-2 [22]	2.3
MOLM-13 [28]	0.353
MV4-11 [17]	0.435
Mono-Mac-6 [19]	0.711
NOMO-1 [30]	9.6
SHI-1 [16]	2.69
THP-1 [24]	> 10
